Entries after “also recorded” stand apart in the source; their conditions may differ. Where two headings read alike, the source gives them in different places.
Tests used:
[1] = test system: IL-6 induced STAT3 phosphorylation; assay: Western blot, IL-6 induced STAT3 phosphorylation; type: cell-based, human
Experimental: (§1) RH30 cells were treated with DMSO, LY-5 (0.25-1 μM) and LY-3 (0.5-2.5 μM) prepared as a 20 mM stock solution in sterile DMSO at 60% to 80% confluence in the presence of 10% FBS for 24 hours. The sarcoma cell line EW8 was treated with DMSO and LY-5 (0.5-2.5 μM) prepared as a 20 mM stock solution in sterile DMSO at 60% to 80% confluence in the presence of 10% FBS for 24 hours. MCF-7 cells and DAOY cells were treated with DMSO, 25-50 ng/ml of IL-6, LY-5 (0.25-1 μM) or LY-3 (0.5-2.5 μM) prepared as a 20 mM stock solution in sterile DMSO, protein expressions of P-STAT3 (Tyr705) and STAT3 were tested. DAOY cells were treated with DMSO, 50 ng/ml of IFN-γ, LY-5 (1-5 μM) prepared as a 20 mM stock solution in sterile DMSO, protein expressions of P-STAT3 (Tyr705) and STAT3 were tested. MCF-7 cells were treated with DMSO, 50 ng/ml of OSM, LY-5 (1-2.5 μM) or LLL12 (1-2.5 μM) prepared as a 20 mM stock solution in sterile DMSO, protein expressions of P-STAT3 (Tyr705), P-STAT1, P-STAT5, P-ERK (T202/Y204), P-AKT, STAT3 and STAT1 were tested.
The cells were harvested and lysed in cold radioimmunoprecipitation assay (RIPA) lysis buffer containing […] and phosphatase inhibitor cocktail, and were subjected to SDS-PAGE. Then they were transferred to PVDF membrane. Membranes were probed with primary antibodies (1:1,000) and horseradish peroxidase (HRP)-conjugated secondary antibody (1:10,000) (Cell Signaling Technology, Beverly, Mass.). Membranes were analyzed using Enhanced Chemiluminescence Plus reagents and scanned with the Storm Scanner (Amersham Pharmacia Biotech, Inc., Piscataway, N.J.).
MCF-7 breast cancer cells were seeded in 10 cm plates and allowed to adhere overnight. The following day, the cells were serum-starved. The cells were then left untreated or were treated with LY-5 (0.25-1 μM) and LY-3 (0.5-2.5 μM) prepared as a 20 mM stock solution in sterile DMSO or DMSO. After 5 hours, the untreated and LY-5 and LY-3 treated cells were stimulated by IL-6 (25 ng/mL). The cells were harvested after 30 minutes and analyzed by Western blot. DAOY medulloblastoma cancer cells were seeded in 10 cm plates and allowed to adhere overnight. The following day, the cells were serum-starved. The cells were then left untreated or were treated with LY-5 (1-5 μM) prepared as a 20 mM stock solution in sterile DMSO or DMSO. After 2 hours, the untreated and LY-5 treated cells were stimulated by IL-6 (25 ng/mL). The cells were harvested after 30 minutes and analyzed by Western blot.

STAT5 = assay: Western blot, STAT5 after OSM stimulation; type: cell-based, human; conditions: MCF-7; 1 and 2.5 μM; OSM 50 ng/mL
Experimental: as §1
MCF-7 breast cancer cells were seeded in 10 cm plates and allowed to adhere overnight. The following day, the cells were serum-starved. The cells were then left untreated or were treated with LY-5 and LLL12 (1 μM and 2.5 μM) prepared as a 20 mM stock solution in sterile DMSO or DMSO. […] The cells were harvested after 30 minutes and analyzed by Western blot.

[2] = test system: human sarcoma cell line U2OS; assay: Cell viability (MTT) assay, U2OS; type: cell-based; conditions: Homo sapiens
Experimental: Human sarcoma cell lines (RD2, RH30, U2OS) were seeded in 96-well plates at a density of 3,000 cells per well. The cells were incubated at 37° C. for a period of 24 hours. Different concentrations of LY-5 (0.1-10 μM), LY-3 (0.1-20 μM), and LLL12 (0.1-10 μM) prepared as a 20 mM stock solution in sterile DMSO were added in triplicate to the plates in the presence of 10% FBS. 3-(4,5-Dimethylthiazolyl)-2, 5-diphenyltetrazoliumbromide (MTT) was added to evaluate cell viability. The absorbance was read at 595 nm. IC50 values were determined using SigmaPlot 9.0 Software (Systat Software, Inc., San Jose, Calif.).
Alternatively, cells were seeded in 96-well plates in triplicate at a density of 3,000 cells per well and given 24 hours to adhere. Cells were then treated with varying concentrations of the inhibitors in the presence of 10% FBS. The cells were incubated for 72 hours at 37° C. 25 μl of MTT dye (Sigma, #M5655) was added to each sample and incubated for 3.5 hours. After this, 100 μl of N,N-dimethylformamide (Sigma, #D4551) solubilization solution was added to each well. The absorbance at 450 nm was read the following day. Half-Maximal inhibitory concentrations (IC50) were determined using Sigma Plot 9.0 software (Systat Software Inc.).
Table 6 below lists specific compounds as well as experimentally determined STAT3 activity in a cell-based assay. The STAT3 activity was determined using the cell viability assays with human sarcoma cell line U2OS as described above. The compounds in Table 6 were synthesized with methods identical or analogous to those described herein. The compound reference numbers (“Ref. No.”) in Table 6 correspond to the compound numbers used in Table 3.

HUVEC = assay: Matrigel invasion assay; type: cell-based, human; conditions: 300 nM
Experimental: The Matrigel invasion assays were carried out using Matrigel precoated inserts (BD Bioscience) following the manufacturer's instructions. Six hundred μl of M200 medium with or without VEGF (20 ng/ml, R&D Systems) was placed in the lower wells. Proliferating HUVECs (4×10^5 cells/ml) were pretreated with LY5 (300 nM) and 100 μl of cell suspension was loaded into each of the upper wells. The chambers were incubated for 18-20 hr at 37° C. After incubation, the inserts were removed, and the non-invading cells on the upper surface were removed with a cotton swab. The cells on the lower surface of the membrane were fixed in 100% methanol for 15 minutes, air-dried, and stained with Diff-Quik stain for 2 min. The cells were counted in six individual high-power fields for each membrane condition under a light microscope. Assays were performed in triplicate for each treatment group and the results were expressed as migrated cells per field for each condition.

Q: How did the “IL-6 induced STAT3 phosphorylation” value ([1]; DAOY, up to 5 μM, 2 h) turn out when NS(=O)(=O)c1cccc2c1C(=O)C=C(Nc1cccnc1)C2=O [LY-5, 5,8-dioxo-6-(pyridin-3-ylamino)-5,8-dihydronaphthalene-1-sulfonamide] was run?
A: Its value is “inhibits; also recorded: blocked the stimulation”.

Q: And the “IL-6 induced STAT3 phosphorylation” value ([1]; DLD1, 0-5 μM, 2 h, IL-6 50 ng/mL)?
A: Its value is “inhibits”.

Q: And the “IL-6 induced STAT3 phosphorylation” value ([1]; MCF-7, LY-3 0.5-2.5 μM, LY-5 0.25-1 μM, 5 h, IL-6 25 ng/mL)?
A: The value was “inhibit; also recorded: blocked the stimulation”.

Q: And the “IL-6 induced STAT3 phosphorylation at Y705” value ([1]; SJSA, 0-2.5 μM, 3 h)?
A: The value was “inhibits”.

Q: What about the “inhibition of STAT5” value (STAT5) of the same compound?
A: The value was “exhibit inhibition”.

Q: And the IC50 ([2]; Table 2, cell line not given, read-out: IC50)?
A: Its IC50 is 500 nM.

Q: What about the IC50 ([2]; Table 7, read-out: IC50 U2OS) of the same compound?
A: The IC50 was 520 nM.

Q: What about the IC50 ([2]; Table 8, read-out: IC50 values vs. cell lines, U2OS) of the same compound?
A: The IC50 was 520 nM.

Q: What about the “HUVECs invasion through Matrigel coated membranes” value (HUVEC) of the same compound?
A: Its value is “prevented”.

From patent US9783513B2, “STAT3 inhibitors and their anticancer use” (Ohio State Innovation Foundation, priority 2012, dated 2017)
